# In ChEMBL document CHEMBL5352409, “Design, synthesis, and pharmacological evaluation of 2-(1-(1,3,4-thiadiazol-2-yl)piperidin-4-yl)ethan-1-ol analogs as novel glutaminase 1 inhibitors” (Eur J Med Chem, 2022):
# The source made the active and inactive calls. No cut-off for these calls is given here.
# Legend:
# A549 [1] = assay: Antiproliferative activity against human A549 cells assessed as reduction in cell viability; type: functional, cell-based
# [2] = target: T1, Glutaminase kidney isoform, mitochondrial (Homo sapiens, UniProt O94925); assay: Inhibition of GLS1 (unknown origin)
# T1 sequence (O94925 whole entry): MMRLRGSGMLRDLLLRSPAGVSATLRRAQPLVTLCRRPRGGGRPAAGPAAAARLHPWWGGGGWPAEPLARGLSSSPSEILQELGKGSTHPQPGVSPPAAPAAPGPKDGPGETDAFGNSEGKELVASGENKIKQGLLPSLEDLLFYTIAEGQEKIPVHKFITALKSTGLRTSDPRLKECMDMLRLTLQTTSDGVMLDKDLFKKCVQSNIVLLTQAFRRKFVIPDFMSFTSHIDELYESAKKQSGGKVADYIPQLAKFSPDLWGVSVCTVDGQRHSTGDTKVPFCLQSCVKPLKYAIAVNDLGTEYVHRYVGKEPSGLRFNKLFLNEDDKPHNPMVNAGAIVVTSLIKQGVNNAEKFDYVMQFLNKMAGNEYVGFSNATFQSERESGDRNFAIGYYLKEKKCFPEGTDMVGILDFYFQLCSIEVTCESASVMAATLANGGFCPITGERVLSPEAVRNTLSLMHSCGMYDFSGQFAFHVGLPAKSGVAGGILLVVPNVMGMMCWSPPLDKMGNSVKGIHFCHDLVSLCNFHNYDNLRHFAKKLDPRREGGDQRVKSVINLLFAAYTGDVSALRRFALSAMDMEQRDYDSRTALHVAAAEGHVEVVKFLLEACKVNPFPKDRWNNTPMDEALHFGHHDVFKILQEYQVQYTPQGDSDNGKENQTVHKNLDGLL
# [3] = target: T2, Glutaminase liver isoform, mitochondrial (Homo sapiens, UniProt Q9UI32); assay: Inhibition of GLS2 (unknown origin)
# T2 sequence (Q9UI32 whole entry): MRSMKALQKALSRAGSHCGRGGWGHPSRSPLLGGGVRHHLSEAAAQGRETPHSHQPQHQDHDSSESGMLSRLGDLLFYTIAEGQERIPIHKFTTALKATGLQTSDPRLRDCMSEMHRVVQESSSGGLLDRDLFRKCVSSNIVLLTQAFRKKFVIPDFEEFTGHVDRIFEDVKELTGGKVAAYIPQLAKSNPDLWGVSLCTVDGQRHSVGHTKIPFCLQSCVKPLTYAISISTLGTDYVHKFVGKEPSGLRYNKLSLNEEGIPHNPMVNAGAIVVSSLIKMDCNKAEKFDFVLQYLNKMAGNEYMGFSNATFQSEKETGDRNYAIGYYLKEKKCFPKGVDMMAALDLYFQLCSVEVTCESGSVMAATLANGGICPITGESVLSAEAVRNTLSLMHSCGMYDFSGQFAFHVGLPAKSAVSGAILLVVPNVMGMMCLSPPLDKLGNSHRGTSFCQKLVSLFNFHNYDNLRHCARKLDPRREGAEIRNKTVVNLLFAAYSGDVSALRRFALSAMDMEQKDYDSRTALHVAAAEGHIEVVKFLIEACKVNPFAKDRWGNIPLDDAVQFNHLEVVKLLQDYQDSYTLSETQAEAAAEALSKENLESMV
# Homo sapiens = organism: Homo sapiens; assay: Selectivity ratio of IC50 for GLS2 (unknown origin) to IC50 for GLS1 (unknown origin)
# A549 [4] = assay: Inhibition of glutaminase in human A549 cells assessed as ratio of glutamine to glutamate level (Rv b= 0.45 +/- 0.011); type: cell-based
# A549 [5] = assay: Inhibition of colony formation in human A549 cells at 2 to 8 uM; type: functional, cell-based; conditions: dose 2-8 µM
# HCT-116 [6] = assay: Inhibition of colony formation in human HCT-116 cells at 2 to 8 uM; type: functional, cell-based; conditions: dose 2-8 µM
# [7] = target: T3, Glutaminase kidney isoform, mitochondrial (Homo sapiens) (UniProt O94925); assay: Potency index, ratio of BPTES IC50 to test compound IC50 for inhibition of GLS1 (unknown origin)
# T3 sequence (whole entry): T1 sequence (O94925 whole entry)
# [8] = human, microsomes
# Description: Metabolic stability in human liver microsome assessed as intrinsic clearance
# HCT-116 [9] = assay: cells; conditions: Homo sapiens
# in vitro = conditions: human, liver microsomes
# [10] = Cmax in rat at 5 mg/kg, iv; type: ADME, organism-based; design: dose 5 mg/kg, route iv; conditions: in vivo
# [11] = Cmax in rat at 5 mg/kg, po; type: ADME, organism-based; design: dose 5 mg/kg, route po; conditions: in vivo
# [12] = AUC(0 to t) in rat at 5 mg/kg, iv; type: ADME, organism-based; design: dose 5 mg/kg, route iv; conditions: in vivo
# [13] = AUC(0 to t) in rat at 5 mg/kg, po; type: ADME, organism-based; design: dose 5 mg/kg, route po; conditions: in vivo
# [14] = AUC(0 to t) in rat at 3 mg/kg, iv; type: ADME, organism-based; design: dose 3 mg/kg, route iv; conditions: in vivo
# A549 [15] = assay: Antitumor activity against human A549 cells xenografted in mouse model assessed as tumor growth inhibition at 100 mg/kg once daily via oral gavage administered for 28 days relative to control; type: functional; design: scale not given: the % may be the effect or the level left; conditions: time 28 day
# [16] = Oral bioavailability in rat at 5 mg/kg; type: ADME, organism-based; conditions: in vivo
# HCT-116 [17] = assay: Antitumor activity against human HCT-116 cells xenografted in mouse model assessed as tumor growth inhibition at 100 mg/kg once daily via oral gavage administered for 28 days relative to control; type: functional; design: scale not given: the % may be the effect or the level left; conditions: time 28 day
# A549 [18] = assay: Induction of apoptosis in human A549 cells assessed as early apoptotic cells at 1 uM incubated for 48 hrs by annexin V-FITC and propidium iodide based flow cytometry analysis (Rvb =12.289%); type: functional
# A549 [19] = assay: Induction of apoptosis in human A549 cells assessed as early apoptotic cells at 5 uM incubated for 48 hrs by annexin V-FITC and propidium iodide based flow cytometry analysis (Rvb =12.289%); type: functional
# A549 [20] = assay: Induction of apoptosis in human A549 cells assessed as early apoptotic cells at 10 uM incubated for 48 hrs by annexin V-FITC and propidium iodide based flow cytometry analysis (Rvb =12.289%); type: functional
# A549 [21] = assay: Induction of apoptosis in human A549 cells assessed as late apoptotic cells at 1 uM incubated for 48 hrs by annexin V-FITC and propidium iodide based flow cytometry analysis (Rvb =9.696%); type: functional
# A549 [22] = assay: Induction of apoptosis in human A549 cells assessed as late apoptotic cells at 5 uM incubated for 48 hrs by annexin V-FITC and propidium iodide based flow cytometry analysis (Rvb =9.696%); type: functional
# A549 [23] = assay: Induction of apoptosis in human A549 cells assessed as late apoptotic cells at 10 uM incubated for 48 hrs by annexin V-FITC and propidium iodide based flow cytometry analysis (Rvb =9.696%); type: functional
# HCT-116 [24] = assay: Antitumor activity against human HCT-116 cells xenografted in mouse model assessed as reduction in tumor cells at 100 mg/kg administered via oral gavage for 28 days; type: functional, organism-based; conditions: time 28.0 day
# in vivo [25] = conditions: rat, iv, 5 mg/kg
# in vivo [26] = conditions: rat, po, 5 mg/kg
# A549 [27] = assay: Potency index, ratio of BPTES IC50 to test compound IC50 for antiproliferative activity against human A549 cells; type: functional
# HCT-116 [28] = assay: Potency index, ratio of BPTES IC50 to test compound IC50 for antiproliferative activity against human HCT-116 cells; type: functional
Structure (SMILES),IC50 (A549 [1]),IC50 [2],IC50 [3],Ratio IC50 (Homo sapiens),Ratio (A549 [4]),CLH [8],IC50 (HCT-116 [9]),half-life (in vitro),other results
Cc1ccccc1CN1CCC(CNC(=O)c2cccc(COCCC3CCN(c4nnc(NC(=O)Cc5ccccc5)s4)CC3)c2)CC1,980 nM,85 nM,> 15000 nM,> 100,1.49,46.8 g/mL/min,550 nM,> 2 h,inhibition (A549 [5]): Active; inhibition (HCT-116 [6]): Active; Ratio IC50 [7]: 50
O=C(Cc1ccccc1)Nc1nnc(CCSCCc2nnc(NC(=O)Cc3ccccc3)s2)s1,49000 nM,,,,,,44000 nM,,Cmax [10]: 493 ng/mL; Cmax [11]: 17.8 ng/mL; AUCt [12]: 543.3 ng·h/mL; AUC(0-t) [13]: 12.5 ng·h/mL; AUC(0-t) [14]: 2090 ng·h/mL; Activity (A549 [15]): 18.8%; bioavailability [16]: 2.3%; Activity (HCT-116 [17]): 22.3%; inhibition (A549 [5]): Active; inhibition (HCT-116 [6]): Active; Activity (A549 [18]): 15.403%; Activity (A549 [19]): 15.055%; Activity (A549 [20]): 9.331%; Activity (A549 [21]): 8.746%; Activity (A549 [22]): 11.666%; Activity (A549 [23]): 14.31%; Activity (HCT-116 [24]): Active; half-life (in vivo [25]): 3.8 h; half-life (in vivo [26]): 2.6 h
CCCN1CCC(CNC(=O)c2ccc(COCCC3CCN(c4nnc(NC(=O)Cc5ccccc5)s4)CC3)cc2)CC1,1320 nM,290 nM,,,,,1690 nM,,Ratio IC50 (A549 [27]): 20; Ratio IC50 (HCT-116 [28]): 20
CN1CCC(CNC(=O)c2ccc(COCCC3CCN(c4nnc(NC(=O)Cc5ccccc5)s4)CC3)cc2)CC1,2310 nM,320 nM,,,,,1510 nM,,Ratio IC50 (A549 [27]): 20; Ratio IC50 (HCT-116 [28]): 20
CN1CCN(c2ccc(C(=O)Nc3ccc(CN4CCN(c5nnc(NC(=O)Cc6ccccc6)s5)CC4)cc3)cc2)CC1,760 nM,66 nM,> 15000 nM,> 100,0.8,56.4 g/mL/min,530 nM,1.12 h,
CCCCCCN1CCC(CNC(=O)c2ccc(COCCC3CCN(c4nnc(NC(=O)Cc5ccccc5)s4)CC3)cc2)CC1,740 nM,88 nM,> 15000 nM,> 100,1.42,22.3 g/mL/min,340 nM,> 2 h,
CN1CCN(c2cccc(NC(=O)c3cccc(CN4CCN(c5nnc(NC(=O)Cc6ccccc6)s5)CC4)c3)c2)CC1,870 nM,65 nM,> 15000 nM,> 100,1.17,21.2 g/mL/min,1130 nM,> 2 h,inhibition (A549 [5]): Active; inhibition (HCT-116 [6]): Active
CC(C)N1CCC(CNC(=O)c2ccc(COCCC3CCN(c4nnc(NC(=O)Cc5ccccc5)s4)CC3)cc2)CC1,2240 nM,365 nM,,,,,3050 nM,,
C=CCCC(=O)N1CCC(CNC(=O)c2ccc(COCCC3CCN(c4nnc(NC(=O)Cc5ccccc5)s4)CC3)cc2)CC1,1360 nM,268 nM,,,,,2070 nM,,inhibition (A549 [5]): Active; inhibition (HCT-116 [6]): Active
CN1CCN(c2cccc(NC(=O)c3ccc(CN4CCN(c5nnc(NC(=O)Cc6ccccc6)s5)CC4)cc3)c2)CC1,970 nM,79 nM,> 15000 nM,> 100,1.1,60.3 g/mL/min,520 nM,1.04 h,
CCCN1CCC(CNC(=O)c2cccc(COCCC3CCN(c4nnc(NC(=O)Cc5ccccc5)s4)CC3)c2)CC1,2010 nM,260 nM,,,,,3920 nM,,
CN1CCC(CNC(=O)c2ccc(COC3CCN(c4nnc(NC(=O)Cc5ccccc5)s4)CC3)cc2)CC1,> 10000 nM,> 10000 nM,,,,,> 10000 nM,,
CN1CCN(c2cccc(NC(=O)c3ccc(COCCC4CCN(c5nnc(NC(=O)Cc6ccccc6)s5)CC4)cc3)c2)CC1,650 nM,62 nM,> 15000 nM,> 100,0.74,35.8 g/mL/min,260 nM,> 2 h,
CCCCN1CCC(CNC(=O)c2ccc(COCCC3CCN(c4nnc(NC(=O)Cc5ccccc5)s4)CC3)cc2)CC1,1290 nM,120 nM,,,,,910 nM,,
O=C(Cc1ccccc1)Nc1nnc(CCc2ccc(C(=O)NCCN3CCCC3)cc2)s1,> 10000 nM,> 10000 nM,,,,,> 10000 nM,,
CC(C)CNC(=O)c1ccc(CN2CCN(c3nnc(NC(=O)Cc4ccccc4)s3)CC2)cc1,2530 nM,146 nM,,,,,1090 nM,,
